Data reported in patent US20020055541A1, “Compositions containing hypotriglyceridemically active stilbenoids” (Shaman Pharmaceuticals, Inc., priority 2000, published 2002).

How the values were obtained:
[1] = reported by Arichi et al., Chem. Pharm. Bull. 30(5) 1766-1770 (1982); cited from earlier work
[2] = reported by Inamori et al., Chem. Phar. Bull. 33(7):2904-09 (1985); cited from earlier work
[3] = system: fat fed, STZ treated male Sprague Dawley rats; experiment: Serum triglyceride levels in fat-fed STZ treated rats (model of hypertriglyceridemia); type: in vivo, rat
Excerpt: This example illustrates the effectiveness of the stilbenoids of formula (I) in reducing serum triglyceride levels in fat-fed STZ treated male Sprague Dawley rats, i.e., an art-recognized model of hypertriglyceridemia.
This example illustrates the effectiveness of the stilbenoids of formula (I), e.g. longistyline A-2-carboxylic acid (Compound A) in reducing serum triglyceride levels in fat fed, STZ treated male Sprague Dawley rats, i.e., an art recognized model of hypertriglyceridemia. […]
Blood samples from tail snips bleeds were collected six hours after the dose on day one, and three (3) and six (6) hours after the administration of the dose on days 2 through 4 into M brand (Becton Dickinson, Franklin Lakes, NJ) serum separator tubes, and centrifuged at 12,000 rpm for 10 minutes. Serum was removed and triglyceride levels were measured using enzymatic […] methods (M. W. McGowan, et al., Clin. Chem. 29, 538 (1983) and P Trinder, Ann. Clin. Biochem. 6, 24 (1969)) using Sigma Diagnostic Kits, Sigma Chemical Company, St. Louis, Mo.
Triglyceride levels are expressed as the mean +SEM. Data were analyzed by one-way analysis of variance (ANOVA), followed by post-hoc Fisher's protected least squares difference (PLSD) tests. […]

[4] = Food consumption in fat fed, STZ treated rats; type: in vivo, rat; settings: 250 mg/kg q.d., FIG. 4
Procedure: (§1) FIG. 4 is a line graph showing the mean food consumption (mg) in fat fed, STZ treated rats administered with GELUCIRE™ vehicle only; and 3-hydroxy-4-(3-methyl-2-butenyl)-5-methoxystilbene-2-carboxylic acid (Compound A). -O- represents vehicle; and -▪- represents Compound A administered at 250 mg/kg q.d. Animals were administered the vehicle and compounds at 24, 48, 72 and 96 h, and […] were measured at 0, 30, 51, 54, 75 and 80 hours after the oral administration. All data points N=8. *P<0.05 (analysis of variance (ANOVA), one factor).
(§2) Male Sprague Dawley rats arrival from Charles River Laboratories, Hollister, Calif., were fed a high fat (20% by weight) diet (TD 78463) obtained from Harlan Teklad, Madison, Wis., which was stored at 4° C. prior to use. Administration of a high fed diet is a well-known method of inducing hypertriglyceridemia in rats.
(§3) Compound A formulations were prepared fresh daily. The appropriate amount of Compound A in GELUCIRE™ was administered by oral gavage at a volume of 2.5 ml/kg of body weight. Animals were fasted at 8:00 am each day.

[5] = Body weight in fat fed, STZ treated rats; type: in vivo, rat; settings: 250 mg/kg q.d., FIG. 3
Procedure: as §1, with “FIG. 3” for “FIG. 4”, “mean body weight” for “mean food consumption”
as §2, §3

## OC[C@H]1OC(Oc2c(O)cc(O)cc2C=Cc2ccc(O)cc2)[C@H](O)[C@@H](O)[C@@H]1O (stereo partly drawn) [2,3,5,4′-tetrahydroxy stilbene-2-O-D-glucoside]
[1]
  Serum triglyceride levels: reduce

## Oc1cc(O)cc(C=Cc2ccc(O)c(O)c2)c1 [3,3′,4,5′-tetrahydroxystilbene]
[2]
  Antifungal activity: strong

## COc1cc(/C=C/c2ccccc2)c(C(=O)O)c(O)c1CC=C(C)C [Compound A, 3-hydroxy-4-(3-methyl-2-butenyl)-5-methoxystilbene-2-carboxylic acid]
[3]; 250 mg/kg body weight q.d. oral gavage in GELUCIRE vehicle, fat fed STZ rats, N=8, p<0.05, FIG. 2
  Serum triglyceride (TG) levels vs vehicle only, at each of the time points: significantly lower
[3]; 250 mg/kg body weight q.d., from day 2 through the end of treatment
  Mean TG levels vs GELUCIRE vehicle group, compared at individual sampling times: significantly lower
[4]
  Food intake (daily mean food consumption): not effected by the treatments
[5]
  Gain in rat body weight over the course of treatment: normal and similar among the treatment groups

## OC[C@H]1O[C@@H](Oc2cc(O)cc(/C=C/c3ccc(O)cc3)c2)[C@H](O)[C@@H](O)[C@@H]1O [Piceid, 3,4′,5-trihydroxystilbene-3-O-β-D-glucopyranoside]
[1]
  Liver lipid levels: lower
  Serum triglyceride levels: lower
